Values quoted from earlier work as cited in US20240199640A1, “NEGATIVE ALLOSTERIC MODULATORS OF METABOTROPIC GLUTAMATE RECEPTOR 2” (priority 2021, published 2024).

What was measured:
rat = conditions: normal animals; cited from earlier work
mouse = conditions: normal animals; cited from earlier work
[1] = treatment for 7 days; cited from earlier work
[2] = test system: olfactory bulbectomized rats; conditions: repeated administration for 14 days; cited from earlier work
[3] = test system: social isolation-reared mice; conditions: cited from earlier work
mice = conditions: treated mice; cited from earlier work
[4] = conditioned fear stress; cited from earlier work

Row | Compound | Antidepressant-like effects in rat forced swim test (rat) | Antidepressant-like effects in mouse tail-suspension test (mouse) | number of escape failures [1] | hyperactivity in the open field test [2] | learning deficit in the passive avoidance test [2] | increased immobility in the FST [3] | marble-burying behavior (mice) | spontaneous locomotor activity (mice) | freezing behavior [4]
1 | N[C@]1(C(=O)O)[C@H]2[C@@H](C[C@H]1OCc1ccc(Cl)c(Cl)c1)[C@]2(F)C(=O)O [MGS0039] | Antidepressant-like effects | Antidepressant-like effects | significantly reduced | attenuated | attenuated | reversed | reduced | no significant change | significantly decreased
2 | CN1C(=O)CN=C(c2ccccc2)c2cc(Cl)ccc21 [diazepam] |  |  |  |  |  |  |  |  | significantly decreased
